Columns and labels:
[1] = system: collagen-induced arthritis; assay: Histopathologic analysis of H&E-stained hind limbs of CIA rats; type: in vivo, Lewis rat; details: for pathologic observations after microscopic evaluation, overall: daily P.O. for 21 days; for Number of animals: Erosion/Ulcer, cartilaginous, Marked / Number of animals: Erosion/Ulcer, cartilaginous, Mild / Number of animals: Erosion/Ulcer, cartilaginous, Minimal / Number of animals: Erosion/Ulcer, cartilaginous, Moderate / Number of animals: Granulation tissue, Marked / Number of animals: Granulation tissue, Mild / Number of animals: Granulation tissue, Minimal / Number of animals: Granulation tissue, Moderate / Number of animals: Increased bone, periosteum, Marked / Number of animals: Increased bone, periosteum, Mild / Number of animals: Increased bone, periosteum, Minimal / Number of animals: Increased bone, periosteum, Moderate / Number of animals: Increased eroded surface, bone, Marked / Number of animals: Increased eroded surface, bone, Mild / Number of animals: Increased eroded surface, bone, Minimal / Number of animals: Increased eroded surface, bone, Moderate / Number of animals: Mixed cell inflammation, Marked / Number of animals: Mixed cell inflammation, Mild / Number of animals: Mixed cell inflammation, Minimal / Number of animals: Mixed cell inflammation, Moderate / Number of animals: No Visible Lesions: hind limbs, CIA induced, 8 animals examined
Description: Hind limbs were collected following euthanasia, with the left limb being used for H&E staining.
H&E-stained slides of designated tissues from animals were transferred to an independent pathologist for microscopic evaluation (SPFBio). Samples were assigned the histologic grades based on the severity of change from tissue where CIA was not induced. Histology grades assigned were as follows: grade 1 (minimal change), grade 2 (mild change), grade 3 (moderate change), grade 4 (marked change), and grade 5 (severe change).
Moderate inflammation was also associated with increased edema fluid, fibrin, and cellular debris. Marked mixed cell inflammation was characterized by dense, widespread accumulations of neutrophils and macrophages with lesser number of lymphocytes within one or more joint spaces, synovium and periarticular soft tissues. Marked inflammation was also associated with abundant edema fluid, fibrin, and cellular debris.
Marked granulation tissue (pannus) was associated with inflammation and was characterized by widespread fibrovascular connective tissue that expanded/replaced the periarticular soft tissues of one or more joints, extended into/expanded joint spaces, was contiguous with areas of erosion/ulcer in articular cartilage and/or increased eroded surface of bone, and variably extended along the diaphysis.
Instances of minimal increased eroded surface were not associated with fragments of bone contiguous and/or surrounded by granulation tissue. […] In some areas, increased eroded surfaces were contiguous with areas of erosion/ulcer in the articular cartilages. Instance of marked increased eroded surface were often associated with fragments of bone contiguous with and/or surrounded by granulation tissue.
This observation was typically most pronounced at joint margins (transition zone). The ulceration was often associated with inflammation and granulation tissue extending through the defect to the subchondral bone.
Marked increased periosteal bone (periosteal bone formation) was characterized by extensive areas of increased bone matrix and numerous prominent osteoblasts lining trabecular surfaces along the metaphysis and/or diaphysis of one or more bones. In some areas, increased periosteal bone was contiguous with increased eroded surface and/or erosion/ulcer at articular cartilage.

[2] = system: collagen-induced arthritis; details: rat, in vivo, po
Protocol: Prior to be randomly placed in treatment groups, animals were weighed, and paw volume was measured. Once randomly assigned to treatment groups, on Day 0, animals in groups 2-9 were immunized by subcutaneous injection at the base of the tail.
The immunization comprised 100 μL of the CFA+Collagen emulsion (prepared according to the method in Experimental Method A). Animals in group one received no immunization. Seven days after the first injection, animals in groups 2-9 received a booster immunization comprising 200 μL of the IFA+Collagen emulsion (prepared according to the method in Experimental Method A).
Starting on Day 0, animals in group 1 and 2 were administered daily doses of the vehicle per os (P.O.) for 21 days. […] The twice daily doses for animals in groups 4-9 were 8 hours apart (e.g., the first dose at 8:00 AM and the second dose at 4:00 PM).
Body weight of all animals was recorded daily for the 21-day period. Blind clinical scores on all four limbs were conducted for all animals in the study. Animals were assessed prior to receiving their first dose of the compound or control, and scores for each limb were combined to a total daily score for each animal. Clinical score assessments were performed on Day 0, 6, 12, 13, 14, 15, 18, 19, and 21 (for a total of 9 daily scores).
Paw volume was recorded for each animal on Day 0, 6, 12, 13, 14, 15, 18, 19, and 21 (for a total of 9 measurements). To measure paw volume, animals were gently held with one hand while the hind paw was placed into a plethysmometer with the other hand. Lipid displacement by the paw was recorded and used to represent paw volume.
All data measured and recorded was analyzed using SPSS 16.0 software. Groups were compared using one-way ANOVA and significance was set at p<0.05.

[3] = CIA rats, daily P.O. (group 4), hind limb H&E

SMILES | pathologic observations after microscopic evaluation, overall ([1]; CIA rats) | Number of animals: Erosion/Ulcer, cartilaginous, Marked [1] | Number of animals: Erosion/Ulcer, cartilaginous, Mild [1] | Number of animals: Erosion/Ulcer, cartilaginous, Minimal [1] | Number of animals: Erosion/Ulcer, cartilaginous, Moderate [1] | Number of animals: Granulation tissue, Marked [1] | Number of animals: Granulation tissue, Mild [1] | Number of animals: Granulation tissue, Minimal [1] | Number of animals: Granulation tissue, Moderate [1] | Number of animals: Increased bone, periosteum, Marked [1] | Number of animals: Increased bone, periosteum, Mild [1] | Number of animals: Increased bone, periosteum, Minimal [1] | Number of animals: Increased bone, periosteum, Moderate [1] | Number of animals: Increased eroded surface, bone, Marked [1] | Number of animals: Increased eroded surface, bone, Mild [1] | Number of animals: Increased eroded surface, bone, Minimal [1] | Number of animals: Increased eroded surface, bone, Moderate [1] | Number of animals: Mixed cell inflammation, Marked [1] | Number of animals: Mixed cell inflammation, Mild [1] | Number of animals: Mixed cell inflammation, Minimal [1] | also measured
CNC(=O)c1cc(C(=O)NC2CC2)cn(Cc2ccccc2)c1=O [GSK620] | at a lower level relative to samples from animals in the CIA-induced group | 0 | 6 | 0 | 2 | 0 | 4 | 0 | 4 | 0 | 6 | 0 | 2 | 0 | 4 | 1 | 3 | 0 | 0 | 0 | erosion/ulcer in articular cartilage [1, 3]: mild and mild to moderate; granulation tissue (pannus) [1, 3]: mild and mild to moderate; increased eroded surface of bone (bone resorption) [1, 3]: mild and minimal to moderate; increased periosteal bone (periosteal bone formation) [1, 3]: mild and mild to moderate; mixed cell inflammation [1, 3]: moderate; Number of animals: Mixed cell inflammation, Moderate [1]: 8; Number of animals: No Visible Lesions [1]: 0; body weight over the course of the study [2]: modest weight gains over the first 13 days of the study followed by weight loss; diarrhea over the 21-day period [2]: did not have diarrhea; increase in body weight, day 21 compared to day 0 [2]: 0.8%
C[C@@H]1C[C@H]2[C@@H]3CCC4=CC(=O)C=C[C@]4(C)[C@@]3(F)[C@@H](O)C[C@]2(C)[C@@]1(O)C(=O)CO [dexamethasone] | No pathologic observations were noted | 0 | 0 | 0 | 0 | 0 | 0 | 0 | 0 | 0 | 0 | 0 | 0 | 0 | 0 | 0 | 0 | 0 | 0 | 0 | pathologic observations after microscopic evaluation, overall ([1]; CIA rats, listed as Dexamethasone): no histopathological observations noted; Number of animals: Mixed cell inflammation, Moderate [1]: 0; Number of animals: No Visible Lesions [1]: 8; body weight over the course of the study [2]: did not exhibit weight gains over the first 13 days of the study
